Laboratory results reported in publication PMC9447362.
Where two headings read alike, the source gives them in different places.

Columns and labels:
RNA with P4 G4 = experiment: Cell-based RNA replication assays with SARS-CoV-2 RdRp (nsp12, nsp7, nsp8) in HEK293T cells, qRT-PCR; settings: compared with P4-Mut, dose-dependent
Excerpt: Cell-based RNA replication assay system was applied[43]–[45]. The plasmids nsp12, nsp7 and nsp8 were used to express codon-optimized Flag-nsp12, Flag-nsp7 and Flag-nsp8, respectively, all of which contain a Flag tag at the C-terminus. To generate the SARS-CoV-2 transcripts with P4 G4 site for RNA replication assays, 5’ untranslated region (UTR)-P4 G4 -3’ UTR was first synthesized, then inserted into the pGEM-T esay vector. And the SARS-CoV-2 RNA with P4 G4 site was produced using T7 RNA polymerases from a standard in vitro transcription kit.
HEK293T cells were transfected with the RNA with P4 G4 site, nsp12, nsp7, and nsp8 plasmids at the ratio of 1:10:30:30. At 12 h post transfection, cells were re-seeded in 24-well plates (4 × 10^4/well) and treated with PDP or TMPyP4. After 48 h incubation, cells were collected and measured for RNA levels by qRT-PCR assays.

P4 G4 [1] = experiment: Protein expression from pCAG-Flag vector with P4-WT or P4-Mut in HeLa and HEK293T cells (western blotting); type: cell-based, SARS-CoV-2; settings: concentration-dependent
SARS-CoV-2 [2] = type: cell-based, SARS-CoV-2 (BetaCoV/Beijing/IME-BJ05-2020); settings: for protein levels of nucleoprotein, Calu-3 cells: western blotting
P4 G4 [3] = type: cell-based, SARS-CoV-2; settings: 10 μM TMPyP4 or 2.5 μM PDP
SARS-CoV-2 [4] = experiment: microbe, parasite or virus in culture; type: cell-based; settings: for protein levels of nucleoprotein, Vero E6 cells: western blotting; for EC50: read-out: EC50 (half-maximal effective doses), antiviral; for EC90: read-out: EC90 (90% maximal effective doses), antiviral
P4 G4 (P4-WT RNA) = experiment: CD spectra and CD melting of P4-WT with G4-specific ligands; type: binding, SARS-CoV-2
Procedure: For CD spectra and CD melting experiments, the DNA or RNA oligonucleotide samples pre-heated at 95 °C for 10 min were slowly cooled to room temperature, and then were incubated at 4 °C for 24 h. The samples were detected by JASCO J-810 spectropolarimeter equipped with a temperature-controlled water bath. In CD melting experiments, versus temperatures were collected at a heating rate of 1 °C/min.

P14 G4 = experiment: RNA replication assay, RNA with P14 G4 in HEK293T cells; type: cell-based, SARS-CoV-2
P2 G4 = type: cell-based, SARS-CoV-2; settings: 10 μM, HEK293T cells
[5] = 30 mg/kg i.n. once daily for 7 consecutive days
P4 G4 [6] = experiment: In vitro translation (IVT) assays; type: biochemical, SARS-CoV-2
[7] = cited from earlier work
[8] = hamster plasma, 30 mg/kg i.n., single dose
P1 = type: cell-based, SARS-CoV-2; settings: 10 μM, HEK293T cells
P13 G4 = experiment: RNA replication assay, RNA with P13 G4 in HEK293T cells; type: cell-based, SARS-CoV-2
SARS-CoV-2 [9] = experiment: In vivo antiviral studies in SARS-CoV-2-infected Syrian hamsters
Procedure: The in vivo antiviral studies were carried out in an ABSL3 facility in Changchun
Veterinary Research Institute, Chinese Academy of Agricultural Sciences. All animal
studies were performed in strict accordance with the guidelines set by the Chinese
Regulations of Laboratory Animals and Laboratory Animal-Requirements of
Environment and Housing Facilities. All animals used in this study were chosen
antiviral in SARS-CoV-2 infection. First, we use a model of Syrian hamsters; and
second, we used a model of human angiotensin-converting enzyme 2 (hACE2)-KI/IOZ
10) or saline (n = 5) 1 h prior to infection. Then the hamsters were anesthetized and
infected intranasally with 105 TCID50 of SARS-CoV-2. For the low challenge dose
For the high challenge dose
The conditions of hamsters
including body weight were monitored daily until sacrifice. 3 days post infection (dpi),
the hamsters were humanely euthanized. The nasal wash, nasal tissues and lung tissues
were harvested for viral titration and pathological examination. Briefly, the nasal
tissues and lung tissues were weighed, and 1 gram of each tissue was placed into 1
mL of PBS containing 100 U/mL penicillin, making 10% weight/volume
homogenates. The tissue samples were homogenized by Tissue Lyser (QIAGEN,
Germany) and centrifuged at 8,000 rpm. The supernatants were then collected and
inoculated into Vero E6 cells, and viral RNA copy numbers and viral titration were
determined by qRT-PCR and TCID50, respectively. Meanwhile, the lungs were fixed
in formalin, and the fixed tissues were embedded in paraffin and stained with H&E
for pathological examination.
therapeutic treatment in vivo, the hamsters were pre-infected with the virus (105
intraperitoneal, i.p., 15 mg/kg)) 1 h prior to infection. Then the hamsters were
anesthetized and infected intranasally with 105 TCID50 of SARS-CoV-2. The conditions
of hamsters including body weight were monitored daily until sacrifice. 3 dpi, the
hamsters were humanely euthanized. The nasal wash, nasal tissues and lung tissues
were harvested for viral titration and pathological examination.
Lung histological analysis
Lung histological analysis was examined by an experienced pathologist. H&E stained
sections of lung from hamsters and mice were examined by implementing a semi
quantitative, 5 point grading scheme (0-within normal limits, 1-mild, 2-moderate,

P3 G4 = type: cell-based, SARS-CoV-2; settings: 10 μM, HEK293T cells
SARS-CoV-2 [10] = settings: mouse, in vivo
P6 G4 = type: cell-based, SARS-CoV-2; settings: 10 μM, HEK293T cells
Vero E6 cells [11] = experiment: Cell viability, SRB assays; settings: Vero E6 cells, SRB assays
[12] = Cell viability, SRB assays; settings: African green monkey
Vero E6 cells [13] = settings: African green monkey
in vitro = settings: African green monkey
[14] = hamster, 15 mg/kg i.p., day 3 after infection
[15] = Severe acute respiratory syndrome coronavirus 2, Vero C1008, Vero E6 cells, 10^3 TCID50 virus/mL, 72 h post infection, viral RNA copies/mL
[16] = dose-dependent, 72 h post infection

C[n+]1ccccc1-c1c2nc(c(-c3cccc[n+]3C)c3ccc([nH]3)c(-c3cccc[n+]3C)c3ccc([nH]3)c(-c3cccc[n+]3C)c3nc1C=C3)C=C2 [TMPyP2]
replication of P4-WT RNA (RNA with P4 G4): no effects | protein levels of P4-WT (P4 G4 [1]): no effects | protein levels of nucleoprotein, Calu-3 cells (SARS-CoV-2 [2]; 100 μM): not TMPyP2 | P4-WT EGFP fluorescence intensity (P4 G4 [3]): no effects | protein levels of nucleoprotein, Vero E6 cells (SARS-CoV-2 [4]; 100 μM): not TMPyP2 | effect on the thermal stability of P4 G4 (P4 G4 (P4-WT RNA)): no effects on the thermal stability

C[n+]1ccc(-c2c3nc(c(-c4cc[n+](C)cc4)c4ccc([nH]4)c(-c4cc[n+](C)cc4)c4nc(c(-c5cc[n+](C)cc5)c5ccc2[nH]5)C=C4)C=C3)cc1 [TMPyP4, 5,10,15,20-tetrakis-(N-methyl-4-pyridyl)porphine]
replication of P4-WT RNA (RNA with P4 G4): significantly inhibit the replication of P4-WT | RNA replication, RNA with P14 G4 (P14 G4): suppressed RNA replication | EGFP expression, P2-EGFP (P2 G4): inhibited EGFP expression | toxicity in hamsters [5]: no noticeable toxicity in the hamsters | toxicity in the lung tissues of hamsters [5]: no noticeable toxicity in the lung tissues of hamsters | IVT of P4-WT (P4 G4 [6]): inhibited the IVT of P4-WT | protein levels of P4-WT (P4 G4 [1]): decreased the protein levels of P4-WT | toxicity in the animals for short-term treatment [7]: no noticeable toxicity | protein levels of nucleoprotein, Calu-3 cells (SARS-CoV-2 [2]; 100 μM): significantly suppress the protein levels of nucleoprotein | mRNA expression of pro-inflammatory cytokines and chemokines (SARS-CoV-2 [2]; Calu-3 cells, 100 μM, qRT-PCR): decrease the mRNA expression of pro-inflammatory cytokines and chemokines | virus infection in Calu-3 cells (SARS-CoV-2 [2]; human lung epithelial Calu-3 cells): inhibited virus infection efficiently | P4-WT EGFP fluorescence intensity (P4 G4 [3]): inhibited the P4-WT EGFP fluorescence intensity | P4-Mut EGFP fluorescence intensity (P4 G4 [3]): not P4-Mut | Cmax [8]: 17880 ng/mL | area under the curve (AUC) [8]: 167.32 h⋅μg/mL | half-life (T1/2) [8]: 6.36 h | EGFP expression, P1-EGFP (P1): not P1 | RNA replication, RNA with P13 G4 (P13 G4): suppressed RNA replication | antiviral synergy with remdesivir in hamsters (SARS-CoV-2 [9]; TMPyP4 15 mg/kg i.n. combined with remdesivir 15 mg/kg i.p.): did not exhibit antiviral synergy with remdesivir in hamsters | decrease of mean viral loads (viral RNA copies/mL and TCID50/mL) in nasal wash, nasal turbinate and lung tissues (SARS-CoV-2 [9]; hamster, in vivo): 2–4 log10 | lung damage (histopathology) (SARS-CoV-2 [9]; hamster, in vivo): significantly ameliorate lung damage | mRNA expression of inflammatory-associated genes in the lungs (SARS-CoV-2 [9]; hamster, in vivo): reduced mRNA expression of inflammatory-associated genes in the lungs | maximal viral RNA copies reduction in the nasal wash, nasal turbinate and lung tissues (SARS-CoV-2 [9]; hamster, in vivo, 15 mg/kg): ~ 3 log10 | viral titers reduction in the nasal wash, nasal turbinate and lung tissues (SARS-CoV-2 [9]; hamster, in vivo, 15 mg/kg): ~ 3.5 log10 | lung damage, therapeutic treatment (SARS-CoV-2 [9]; hamster, in vivo, 30 mg/kg): could ameliorate lung damage | viral loads in nasal wash, nasal turbinate and lung tissues, therapeutic treatment (SARS-CoV-2 [9]; hamster, in vivo, 30 mg/kg): significantly decreased the viral loads | EGFP expression, P3-EGFP (P3 G4): inhibited EGFP expression | viral loads in the nasal turbinate and lung tissues (SARS-CoV-2 [10]): significantly decreased the viral loads in the nasal turbinate and lung tissues | EGFP expression, P6-EGFP (P6 G4): inhibited EGFP expression | SI (selectivity index) (SARS-CoV-2 [4]): > 112.74 | antiviral activity of TMPyP4 after pre-transfection of ASOs targeting viral G4s (SARS-CoV-2 [4]): significantly inhibited by ASO targeting viral G4s | maximal viral RNA copies reduction in the Vero E6 cell culture supernatant (SARS-CoV-2 [4]): ~ 7 log10 | maximal viral RNA copies reduction in the Vero E6 cell lysate (SARS-CoV-2 [4]): ~ 6 log10 | maximal viral titers reduction in the culture supernatant of Vero E6 cell (SARS-CoV-2 [4]): ~ 6 log10 | viral RNA copies and viral titers in Vero E6 cells (SARS-CoV-2 [4]): significantly reduced viral RNA copies and viral titers | viral loads in Vero E6 cells pre-infected with SARS-CoV-2 (SARS-CoV-2 [4]): significantly decreased the viral loads | protein levels of nucleoprotein, Vero E6 cells (SARS-CoV-2 [4]; 100 μM): significantly suppress the protein levels of nucleoprotein | time-of-addition: stage of action (SARS-CoV-2 [4]; Vero E6 cells, 100 μM): functioned at a stage post SARS-CoV-2 entry | antiviral synergy with remdesivir in vitro (SARS-CoV-2 [4]; combination of TMPyP4 and remdesivir): did not exhibit antiviral synergy | EC50 (SARS-CoV-2 [4]): 8.87 µM | EC90 (SARS-CoV-2 [4]): 13.2 µM | effect on the thermal stability of P4 G4 (P4 G4 (P4-WT RNA)): significantly enhanced the thermal stability | CC10 (10% cytotoxic concentration) (Vero E6 cells [11]): 727.7 µM | CC50 (Vero E6 cells [11]; read-out: CC50 (half-cytotoxic concentration)): > 1000 µM

CCC(CC)COC(=O)[C@H](C)N[P@](=O)(OC[C@H]1O[C@@](C#N)(c2ccc3c(N)ncnn23)[C@H](O)[C@@H]1O)Oc1ccccc1 [remdesivir]
maximal viral RNA copies reduction in the nasal wash, nasal turbinate and lung tissues (SARS-CoV-2 [9]; [14]): 1 log10 | viral titers reduction in the nasal wash, nasal turbinate and lung tissues (SARS-CoV-2 [9]; [14]): ~ 1.5 log10 | maximal viral titers reduction in the culture supernatant of Vero E6 cell (SARS-CoV-2 [4]; 72 h post infection, TCID50): ~ 3 log10 | maximal viral RNA copies reduction in the Vero E6 cell culture supernatant (SARS-CoV-2 [4]; 72 h post infection, qRT-PCR): ~ 4 log10 | maximal viral RNA copies reduction in the Vero E6 cell lysate (SARS-CoV-2 [4]; 72 h post infection, qRT-PCR): 3 log10 | EC50 (SARS-CoV-2 [4]; [15]): 1.33 µM | EC90 (SARS-CoV-2 [4]; [15]): 2.42 µM | SI (selectivity index) (SARS-CoV-2 [4]; Vero E6 cells, CC50/EC50): > 75.19 | viral RNA copies and viral titers in Vero E6 cells (SARS-CoV-2 [4]; [16]): significantly reduced viral RNA copies and viral titers | CC50 [12]: > 100 µM | CC10 (10% cytotoxic concentration) (Vero E6 cells [11]): 1.04 µM

NCCOc1cc(C(=O)Nc2cc(OCCN3CCCC3)c3ccccc3n2)nc(C(=O)Nc2cc(OCCN3CCCC3)c3ccccc3n2)c1 [PDP]
replication of P4-WT RNA (RNA with P4 G4): significantly inhibit the replication of P4-WT | IVT of P4-WT (P4 G4 [6]; P4-WT): inhibited the IVT of P4-WT | protein levels of P4-WT (P4 G4 [1]): decreased the protein levels of P4-WT | CC10 (10% cytotoxic concentration) (Vero E6 cells [13]): 2.84 µM | P4-WT EGFP fluorescence intensity (P4 G4 [3]): inhibited the P4-WT EGFP fluorescence intensity | P4-Mut EGFP fluorescence intensity (P4 G4 [3]): not P4-Mut | CC50 (in vitro): 4.9 µM | SI (selectivity index) (SARS-CoV-2 [4]): 7.78 | EC50 (SARS-CoV-2 [4]; [15]): 0.63 µM | EC90 (SARS-CoV-2 [4]; [15]): > 2 µM | viral RNA copies and viral titers in Vero E6 cells (SARS-CoV-2 [4]; [16]): significantly reduced viral RNA copies and viral titers | effect on the thermal stability of P4 G4 (P4 G4 (P4-WT RNA)): significantly enhanced the thermal stability
